From patent US20060019951A1, “Vacuolins” (CBR Institute for Biomedical Research, priority 2002, published 2006) come the findings set out here.

The subject of this assay is vacuole formation in cells exposed to a vacuolin. Put plainly: Conditions under which vacuole formation is blocked in cells exposed to a vacuolin. Format: cell-based. The following applies: FIGS. 8-10. An excerpt:
Additional studies were directed at identifying conditions under which vacuole formation is blocked (see, for example, FIGS. 8-10). […] It is likely that the intravacuolar pH is higher than the low pH of lysosomes; the vacuoles are likely to accumulate Cl ions (see, for example, FIG. 11).

SMILES strings stand for the structures.

Turning to `CO/C1=C\C(C)=C\[C@@H](C)[C@@H](O)[C@@H](C)C/C(C)=C/C=C/[C@H](OC)[C@@H]([C@@H](C)[C@@H](O)[C@H](C)[C@@]2(O)C[C@@H](O)[C@H](C)[C@@H](C(C)C)O2)OC1=O` [bafilomycin A], the “effect on vacuole formation in cells exposed to a vacuolin” value is listed as “inhibited”.
